How the values were obtained:
[1] = test system: Helicobacter pylori strain 26695 (ATCC700392); test: Embodiment 4: antibacterial experiment against Helicobacter pylori, malate, lactate, citrate and phosphate buffer combinations with ascorbic acid (viable count); assay type: cell-based
Procedure: The bacteria strain used in the experiment was Helicobacter pylori strain 26695 (ATCC700392), and the bacteria were subcultured on Brucella solid medium (Brucella broth 28 g/L, Agar 15 g/L and 10% (v/v) Horse serum, pH 7.0). After the bacteria were seeded by streaking method, they were cultured in a humidified anaerobic chamber at 37° C. for 72 hours using a microaerobic bag (Genbox microaer, BioMerieux, 96125). […] Brucella broth containing 10 mg/mL of NaHCO3 was added to the Helicobacter pylori subcultured for 72 hours, bacterial concentration was adjusted to 10^7-10^8 CFU/mL as a bacterial solution, the bacterial solution was mixed with each culture solution in a 1:1 ratio, and the mixture was incubated at 37° C. in a humidified anaerobic chamber using a micro-aerobic bag (Genbox microaer, BioMerieux, 96125). […] The malate buffer combination and the lactate buffer combination were prepared by mixing malic acid and sodium malate, and lactic acid and sodium lactate, respectively, in the same way. The phosphate buffer solutions were prepared by mixing KH2PO4 and Na2HPO4 in different ratios according to their pH values, and the unmodulable portion was prepared by HCl and NaOH to reach a constant pH value. The pH of the pure medium was adjusted with HCl and NaOH. […] Finally, the viable count of each culture medium was calculated.

[2] = test system: Helicobacter pylori strain 26695 (ATCC700392); test: Embodiment 1: antibacterial experiment against Helicobacter pylori, citrate and phosphate buffer combinations with or without ascorbic acid (viable count); assay type: cell-based

`O=C1O[C@H]([C@@H](O)CO)C(O)=C1O` [ascorbic acid, L-Ascorbic acid] was tested, and the “effect of the ascorbic acid on the sterilization effect of the citrate or the malate buffer combination” value ([1]; comparing Embodiment 3 and Embodiment 4) was “synergistic effect”, the “effect of the ascorbic acid added to the phosphate buffer combination or water” value ([1]; presence of bicarbonate, Embodiments 3 and 4) was “neither bactericidal effect nor synergistic effect” and the “effect of the ascorbic acid on the sterilization of the citrate buffer combination” value ([2]; comparing C3 with C3V3000, and C4 with C4V3000) was “synergistic effect”. For the same molecule, the “effect of the ascorbic acid added to the phosphate buffer combination or water” value ([2]; presence of bicarbonate, Embodiment 1) was “neither the bactericidal effect nor the synergistic effect”.
